From patent US20240158418A1 (C4 Therapeutics, Inc., priority 2021, published 2024)

Each compound was assayed against T1, EGFR L858R-T790M (Homo sapiens, UniProt P00533, L858R/T790M) (assay: EGFR degradation, Total EGFR (L858R-specific) HTRF, NCI-H1975). Settings: Table 9A; NCI-H1975 cells, 6 hours, Total EGFR HTRF; read-out: H1975 EGFR DC50.
T1 construct: NCI-H1975 (harboring EGFR heterozygous L858R-T790M mutations); host or cells: NCI-H1975
Type: cell-based
How it was run: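 FRET signal from HTRF kits measured phospho-EGFR at pY1068 or total EGFR after 6 h treatment at 37 °C. Compounds ran as 11-point half-log dilutions from 10 μM in duplicate, in cells in phenol red-free RPMI with 10% FBS. Concentrations giving 50% inhibition or degradation were reported as IC50 or DC50.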

T1 sequence (P00533 25-1210 T790M/L858R): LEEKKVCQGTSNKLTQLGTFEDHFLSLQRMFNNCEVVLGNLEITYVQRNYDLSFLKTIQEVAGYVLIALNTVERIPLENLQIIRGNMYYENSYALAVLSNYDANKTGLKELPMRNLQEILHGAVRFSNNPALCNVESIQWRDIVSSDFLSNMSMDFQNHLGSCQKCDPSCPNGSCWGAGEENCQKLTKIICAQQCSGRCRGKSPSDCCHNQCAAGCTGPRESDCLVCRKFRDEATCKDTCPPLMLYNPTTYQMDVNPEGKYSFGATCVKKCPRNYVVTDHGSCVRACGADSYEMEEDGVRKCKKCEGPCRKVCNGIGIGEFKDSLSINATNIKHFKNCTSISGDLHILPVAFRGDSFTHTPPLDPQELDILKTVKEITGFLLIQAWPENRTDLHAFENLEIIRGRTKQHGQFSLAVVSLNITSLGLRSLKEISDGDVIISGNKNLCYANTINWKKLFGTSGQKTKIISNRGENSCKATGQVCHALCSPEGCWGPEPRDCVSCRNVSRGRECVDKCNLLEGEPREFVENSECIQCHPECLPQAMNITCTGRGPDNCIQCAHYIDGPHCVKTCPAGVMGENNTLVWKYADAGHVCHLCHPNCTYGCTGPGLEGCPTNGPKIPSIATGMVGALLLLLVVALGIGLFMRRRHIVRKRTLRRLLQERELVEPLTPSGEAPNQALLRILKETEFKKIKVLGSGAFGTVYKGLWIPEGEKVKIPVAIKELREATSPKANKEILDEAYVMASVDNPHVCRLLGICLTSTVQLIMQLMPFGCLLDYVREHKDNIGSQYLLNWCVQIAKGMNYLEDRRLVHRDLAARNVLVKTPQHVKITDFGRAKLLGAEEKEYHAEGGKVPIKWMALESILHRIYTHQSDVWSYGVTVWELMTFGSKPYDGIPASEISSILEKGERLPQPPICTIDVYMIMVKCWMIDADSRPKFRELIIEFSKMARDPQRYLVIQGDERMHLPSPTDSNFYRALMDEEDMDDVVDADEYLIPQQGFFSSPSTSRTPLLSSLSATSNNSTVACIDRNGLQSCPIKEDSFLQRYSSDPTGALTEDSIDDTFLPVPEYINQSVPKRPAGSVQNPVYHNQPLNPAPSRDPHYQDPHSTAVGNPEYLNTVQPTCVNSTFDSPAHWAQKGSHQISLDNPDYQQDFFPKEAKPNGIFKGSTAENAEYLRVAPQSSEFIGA

| DC50 [nM] | SMILES |
| --- | --- |
| 50 to 150 | O=C1CCC(Nc2ccc(C3CCN(CC(=O)N4CCN(c5ccc(-c6ccc7cn(C(C(=O)Nc8nccs8)c8ncn9c8CCC9)nc7c6F)cn5)CC4)CC3)cc2)C(=O)N1 (racemic) [Compound 63, (2RS)-2-(6,7-Dihydro-5H-pyrrolo[1,2-c]imidazol-1-yl)-2-[7-fluoro-6-[6-[4-[2-[4-[4-[[(3RS)-2,6-dioxo-3-piperidyl]amino]phenyl]-1-piperidyl]acetyl]piperazin-1-yl]-3-pyridyl]indazol-2-yl]-N-thiazol-2-yl-acetamide] |

Same assay, conditions: Table 9B; NCI-H1975 cells, 6 hours, Total EGFR HTRF; read-out: H1975 EGFR DC50

| DC50 [nM] | SMILES |
| --- | --- |
| < 50 | O=C1CCC(Nc2ccc(N3CCC(O)(CC(=O)N4CC5(CCN(c6ccc(-c7cc(F)c8c(c7)C(=O)N(C(C(=O)Nc7nccs7)c7ncn9c7CCC9)C8)cc6)CC5)C4)CC3)c(F)c2)C(=O)N1 (stereo not drawn) [Compound 107, 2-(6,7-dihydro-5H-pyrrolo[1,2-c]imidazol-1-yl)-2-(6-(4-(2-(2-(1-(4-((2,6-dioxopiperidin-3-yl)amino)-2-fluorophenyl)-4-hydroxypiperidin-4-yl)acetyl)-2,7-diazaspiro[3.5]nonan-7-yl)phenyl)-4-fluoro-1-oxoisoindolin-2-yl)-N-(thiazol-2-yl)acetamide] |
| < 50 | O=C1CC[C@H](Nc2ccc(N3CCC(O)(CC(=O)N4CCC5(CC4)CN(c4ccc(-c6cc(F)c7cn(C(C(=O)Nc8nccs8)c8ncn9c8CCC9)nc7c6)cc4)C5)CC3)c(F)c2)C(=O)N1 (stereo partly drawn) [Compound 79, 2-(6,7-dihydro-5H-pyrrolo[1,2-c]imidazol-1-yl)-2-(6-(4-(7-(2-(1-(4-(((S)-2,6-dioxopiperidin-3-yl)amino)-2-fluorophenyl)-4-hydroxypiperidin-4-yl)acetyl)-2,7-diazaspiro[3.5]nonan-2-yl)phenyl)-4-fluoro-2H-indazol-2-yl)-N-(thiazol-2-yl)acetamide] |
| 50 to 150 | O=C1CCC(Nc2ccc(-c3ccc(CC(=O)N4CCC(Oc5ccc(-c6cc(F)c7c(c6)C(=O)N(C(C(=O)Nc6nccs6)c6ncn8c6CCC8)C7)cc5)CC4)cc3)cc2)C(=O)N1 (stereo not drawn) [Compound 81, 2-(6,7-dihydro-5H-pyrrolo[1,2-c]imidazol-1-yl)-2-(6-(4-((1-(2-(4′-((2,6-dioxopiperidin-3-yl)amino)-[1,1′-biphenyl]-4-yl)acetyl)piperidin-4-yl)oxy)phenyl)-4-fluoro-1-oxoisoindolin-2-yl)-N-(thiazol-2-yl)acetamide] |
| < 50 | O=C1CC[C@H](Nc2ccc(C3CCN(C(=O)CC4CC5(C4)CN(c4ccc(-c6cc(F)c7c(c6)C(=O)N(C(C(=O)Nc6nccs6)c6ncn8c6CCC8)C7)cc4)C5)CC3)c(F)c2)C(=O)N1 (stereo partly drawn) [Compound 100, 2-(6,7-dihydro-5H-pyrrolo[1,2-c]imidazol-1-yl)-2-(6-(4-(6-(2-(4-(4-(((S)-2,6-dioxopiperidin-3-yl)amino)-2-fluorophenyl)piperidin-1-yl)-2-oxoethyl)-2-azaspiro[3.3]heptan-2-yl)phenyl)-4-fluoro-1-oxoisoindolin-2-yl)-N-(thiazol-2-yl)acetamide] |
| < 50 | O=C1CCC(Nc2ccc(N3CCCC(O)(CC(=O)N4CC5(C4)CN(c4ccc(-c6cc(F)c7c(c6)C(=O)N(C(C(=O)Nc6nccs6)c6ncn8c6CCC8)C7)cc4)C5)CC3)c(F)c2)C(=O)N1 (single isomer, unassigned; isomer a2) [Compound 165, 2-(6,7-dihydro-5H-pyrrolo[1,2-c]imidazol-1-yl)-2-[6-[4-[2-[2-[1-[4-[[2,6-dioxo-3-piperidyl]amino]-2-fluoro-phenyl]-4-hydroxy-azepan-4-yl]acetyl]-2,6-diazaspiro[3.3]heptan-6-yl]phenyl]-4-fluoro-1-oxo-isoindolin-2-yl]-N-thiazol-2-yl-acetamide, isomer A2] |
| 50 to 150 | O=C1CCN(c2ccc(N3CCC(O)(CC(=O)N4CC5(C4)CN(c4ccc(-c6cc(F)c7c(c6)C(=O)N(C(C(=O)Nc6nccs6)c6ncn8c6CCC8)C7)cc4)C5)CC3)c(C(F)(F)F)c2)C(=O)N1 (stereo not drawn) [Compound 168, 2-(6,7-dihydro-5H-pyrrolo[1,2-c]imidazol-1-yl)-2-[6-[4-[2-[2-[1-[4-(2,4-dioxohexahydropyrimidin-1-yl)-2-(trifluoromethyl)phenyl]-4-hydroxy-4-piperidyl]acetyl]-2,6-diazaspiro[3.3]heptan-6-yl]phenyl]-4-fluoro-1-oxo-isoindolin-2-yl]-N-thiazol-2-yl-acetamide] |
| 50 to 150 | Cn1nc(N2CCC(=O)NC2=O)c2ccc(C3CCN(CC(=O)N4CC5(C4)CN(c4ccc(-c6cc(F)c7c(c6)C(=O)N(C(C(=O)Nc6ccccn6)c6ncn8c6CCC8)C7)cc4)C5)C4(CC4)C3)cc21 (stereo not drawn) [Compound 153, 2-(6,7-dihydro-5H-pyrrolo[1,2-c]imidazol-1-yl)-2-[6-[4-[2-[2-[7-[3-(2,4-dioxohexahydropyrimidin-1-yl)-1-methyl-indazol-6-yl]-4-azaspiro[2.5]octan-4-yl]acetyl]-2,6-diazaspiro[3.3]heptan-6-yl]phenyl]-4-fluoro-1-oxo-isoindolin-2-yl]-N-(2-pyridyl)acetamide] |
| < 50 | Cn1nc(N2CCC(=O)NC2=O)c2ccc(C3CCN(CC(=O)N4CC5(C4)CN(c4ccc(-c6cc(F)c7c(c6)C(=O)N(C(C(=O)Nc6nccs6)c6ncn8c6C[C@@H](F)C8)C7)cc4)C5)CC3(F)F)cc21 (stereo partly drawn) [Compound 116, 2-[6-[4-[2-[2-[4-[3-(2,4-dioxohexahydropyrimidin-1-yl)-1-methyl-indazol-6-yl]-3,3-difluoro-1-piperidyl]acetyl]-2,6-diazaspiro[3.3]heptan-6-yl]phenyl]-4-fluoro-1-oxo-isoindolin-2-yl]-2-[(6R)-6-fluoro-6,7-dihydro-5H-pyrrolo[1,2-c]imidazol-1-yl]-N-thiazol-2-yl-acetamide] |
| 50 to 150 | O=C1CCC(Nc2ccc(C3CCN(C(=O)CC4CCN(c5ccc(-c6cc(F)c7c(c6)C(=O)N(C(C(=O)Nc6nccs6)c6ncn8c6CCC8)C7)cc5)CC4)CC3)c(F)c2)C(=O)N1 (stereo not drawn) [Compound 86, 2-(6,7-dihydro-5H-pyrrolo[1,2-c]imidazol-1-yl)-2-[6-[4-[4-[2-[4-[4-[(2,6-dioxo-3-piperidyl)amino]-2-fluoro-phenyl]-1-piperidyl]-2-oxo-ethyl]-1-piperidyl]phenyl]-4-fluoro-1-oxo-isoindolin-2-yl]-N-thiazol-2-yl-acetamide] |
| < 50 | O=C1CCC(Nc2cnc(C3CCN(CC(=O)N4CC5(C4)CN(c4ccc(-c6cc(F)c7c(c6)C(=O)N(C(C(=O)Nc6nccs6)c6ncn8c6CCC8)C7)cc4)C5)CC3)c(F)c2)C(=O)N1 (stereo not drawn) [Compound 112, 2-(6,7-dihydro-5H-pyrrolo[1,2-c]imidazol-1-yl)-2-(6-(4-(6-(2-(4-(5-((2,6-dioxopiperidin-3-yl)amino)-3-fluoropyridin-2-yl)piperidin-1-yl)acetyl)-2,6-diazaspiro[3.3]heptan-2-yl)phenyl)-4-fluoro-1-oxoisoindolin-2-yl)-N-(thiazol-2-yl)acetamide] |
| < 50 | O=C1CCC(Nc2ccc(CC(=O)N3CCC(NC(=O)c4ccc(C#Cc5cc(F)c6c(c5)C(=O)N(C(C(=O)Nc5nccs5)c5ncn7c5CCC7)C6)cn4)CC3)cc2)C(=O)N1 (stereo not drawn) [Compound 93, 5-[2-[2-[1-(6,7-dihydro-5H-pyrrolo[1,2-c]imidazol-1-yl)-2-oxo-2-(thiazol-2-ylamino)ethyl]-7-fluoro-3-oxo-isoindolin-5-yl]ethynyl]-N-[1-[2-[4-[(2,6-dioxo-3-piperidyl)amino]phenyl]acetyl]-4-piperidyl]pyridine-2-carboxamide] |
| 50 to 150 | O=C1CCC(Nc2ccc(N3CCCC(O)(CC(=O)N4CC5(C4)CN(c4ccc(-c6cc(F)c7c(c6)C(=O)N(C(C(=O)Nc6nccs6)c6ncn8c6CCC8)C7)cc4)C5)CC3)c(F)c2)C(=O)N1 (single isomer, unassigned; isomer b1) [Compound 166, 2-(6,7-dihydro-5H-pyrrolo[1,2-c]imidazol-1-yl)-2-[6-[4-[2-[2-[1-[4-[[2,6-dioxo-3-piperidyl]amino]-2-fluoro-phenyl]-4-hydroxy-azepan-4-yl]acetyl]-2,6-diazaspiro[3.3]heptan-6-yl]phenyl]-4-fluoro-1-oxo-isoindolin-2-yl]-N-thiazol-2-yl-acetamide, isomer B1] |
| < 50 | Cn1nc(N2CCC(=O)NC2=O)c2cc(F)c(C3CCN(CC(=O)N4CC5(C4)CN(c4ccc(-c6cc(F)c7c(c6)C(=O)N(C(C(=O)Nc6nccs6)c6ncn8c6CCC8)C7)cc4)C5)CC3(F)F)cc21 (single isomer, unassigned; isomer 2) [Compound 130, 2-(6,7-dihydro-5H-pyrrolo[1,2-c]imidazol-1-yl)-2-[6-[4-[2-[2-[4-[3-(2,4-dioxohexahydropyrimidin-1-yl)-5-fluoro-1-methyl-indazol-6-yl]-3,3-difluoro-1-piperidyl]acetyl]-2,6-diazaspiro[3.3]heptan-6-yl]phenyl]-4-fluoro-1-oxo-isoindolin-2-yl]-N-thiazol-2-yl-acetamide, isomer 2] |
| < 50 | Cn1nc(N2CCC(=O)NC2=O)c2cc(F)c(C3CCN(CC(=O)N4CC5(C4)CN(c4ccc(-c6cc(F)c7c(c6)C(=O)N(C(C(=O)Nc6nccs6)c6ncn8c6CCC8)C7)cc4)C5)CC3(F)F)cc21 (single isomer, unassigned; isomer 1) [Compound 129, 2-(6,7-dihydro-5H-pyrrolo[1,2-c]imidazol-1-yl)-2-[6-[4-[2-[2-[4-[3-(2,4-dioxohexahydropyrimidin-1-yl)-5-fluoro-1-methyl-indazol-6-yl]-3,3-difluoro-1-piperidyl]acetyl]-2,6-diazaspiro[3.3]heptan-6-yl]phenyl]-4-fluoro-1-oxo-isoindolin-2-yl]-N-thiazol-2-yl-acetamide, isomer 1] |
